Results taken from patent US20060287383A1, “Substance exhibiting antidepressant property” (priority 2003, published 2006).

Experiments:
Format in all cases: in vivo
white outbred male rats [1] = assay: reserpine depression method according to Bernardi; conditions: for reduction of the diarrhea intensity / reduction of the intensity of ptosis: versus reserpine; for orientation and motion activity: reserpinized rats; for Diarrhea / Ptosis: 4-point scale; for Number of pulses in activity meter: three minutes, Varimex
Source text: The method of reserpine depression according to Bernardi (Bernardi D., Paglialunga S., Jori A. Peripheral and central components in the hyperthermic effect of desipramine in rezerpinized rats//J. Pharm. Pharmacol., 1968, vol. 20, p. 204-209) is one of the basic models for assessing antidepressants in studies of new pharmaceuticals. The studies have been conducted with white outbred male rats having the weight from 200 to 240 grams. Reserpine has been introduced intraperitoneally, as a single dose of 2.5 mg/kg 2 hours before the introduction of phenotropyl (intraperitoneally, single doses of 25, 50, 100 and 200 mg/kg) and 3 hours before starting the study. The animals from the control group have received intraperitoneally distilled water only in the same volumes as the animals from the experimental groups. The antidepressant activity of phenotropyl has been assessed by its effect on sedation (suppression of the orientation and motion activity), intensity of ptosis and diarrhea, which have been caused by reserpine in the rats.
The orientation and motion activity of the animals has been studied for three minutes in a special activity meter (Varimex). The intensity of ptosis and diarrhea has been assessed on the standard 4-point scale (Mashkovsky M. D., Andreeva N. I., Polezhaeva A. I. Pharmacology of Antidepressants. Moscow, Medicine Publishers, 1983, p. 194-199).

white outbred male rats [2] = assay: Porsolt method of behavioral despair (helplessness); conditions: for Time of immobility: 10 minutes observation
Source text: The Porsolt method of behavioral despair (helplessness) (Porsolt R. D., Anton G., Blavet N. et al. Behavioral despair in rats: a new model sensitive to antidepressant treatment//Europ. J. Pharmacol. 1978—v. 47.—p. 379-391) is the basic model for assessing antidepressants (Andreeva N. I., ? H. ? . the Methodical Guidelines for Studying Antidepressant Activity of Pharmaceuticals,//Guidebook for Experimental (Preclinical) Studies of New Pharmaceuticals of the RF Ministry of Public Health.—ZAO IIA “Remedium”.—2000.—p. 121-125). The studies have been conducted on white outbred male rats having the weight of 230-250 grams. The animals have been put into a water reservoir having 40 cm in diameter and the depth of 60 cm, for the rats cannot either run out of the reservoir or find a support in it. The water temperature has been maintained at the level of 25° C., the experiments have been conducted within the period from 12 A.M. to 4 P.M. After coming into water the animals begin displaying energetic motion activity aimed at finding a way out of the aversive (troublesome) situation, but then they stop their attempts and take a typical position in the water, while being fully immovable or making insignificant motions necessary for keeping their heads over the water surface. The depressive condition intensity rate in this test is the duration of immobility. The immobility condition has been assessed visually, determining its duration within 10 minutes of the observations. Substances having antidepressant activity alleviate this condition by reducing the immobility time.
The studies have been conducted using animals divided into groups. The animals from the experimental groups have received single doses of phenotropyl in the amounts of 25, 50 and 100 mg/kg or the standard amitriptyline medication in the amount of 10 mg/kg (ampoule solution made by Spofa, the Czech Republic) in the volume corresponding to the dose. The animals from the control group have received distilled water in the same dosage. All the substances have been given intragastrically 40 minutes before the an experiment.

white outbred male rats [3] = assay: involuntary swimming in a reservoir with freely moving wheels according to Nomura
Description: The method of involuntary swimming in a reservoir with freely moving wheels (Nomura S., Shimizu J., Kinjo M. et al. A new behavioral test for antidepressant drugs//Eur. J. Pharmacol.—1982.—v. 83.—N 34.—p. 171-175) is widely used for assessing the action of antidepressant agents. The installation is a reservoir having dimensions of 64×30×42 cm and divided into four equal sections where wheels are located. The reservoir is filled with water at the temperature of 25° C., coming to the medium line of the wheels. The studies have been conducted with white outbred male rats having the weight from 230 to 250 grams. The rats have been put into each section in the position where their heads are opposite to the wheels, and then the wheel speed has been recorded for 10 minutes with the use of electromechanical counters. The number of wheel revolutions made by the rat for 10 minutes is recorded.
This study has been conducted with animals from different groups. The rats from the experimental groups have received single doses of phenotropyl in the amounts of 25, 50 and 100 mg/kg or the standard amitriptyline medication in the amount of 10 mg/kg (ampoule solution made by Spofa, the Czech Republic) in the volume corresponding to the dosage. The animals from the control group have received distilled water in the same dosage. All the substances have been given intragastrically 40 minutes before the an experiment.

[4] = reserpine 2.5 mg/kg + phenotropyl 25 mg/kg intraperitoneally
[5] = reserpine 2.5 mg/kg + phenotropyl 50 mg/kg intraperitoneally
[6] = reserpine 2.5 mg/kg + phenotropyl 100 mg/kg intraperitoneally
[7] = reserpine 2.5 mg/kg + phenotropyl 200 mg/kg intraperitoneally
[8] = single dose 25 mg/kg intragastrically 40 minutes before
[9] = single dose 50 mg/kg intragastrically 40 minutes before

## NC(=O)CN1CC(c2ccccc2)CC1=O (stereo not shown) [Phenotropyl, N-carbamoyl-methyl-4-phenyl-2-pyrrolidone]
White outbred male rats [1]; phenotropyl 50 mg/kg
  reduction of the diarrhea intensity: 1.7 times
  reduction of the intensity of ptosis: 1.4 times
White outbred male rats [1]; phenotropyl 100 mg/kg
  reduction of the diarrhea intensity: 2.4 times
White outbred male rats [1]; phenotropyl 200 mg/kg
  reduction of the diarrhea intensity: 2.2 times
White outbred male rats [1]; phenotropyl 100 and 200 mg/kg
  reduction of the intensity of ptosis: 1.8 times
White outbred male rats [1]; phenotropyl doses of 25 and 50 mg/kg
  orientation and motion activity: increased
White outbred male rats [1]; phenotropyl doses of 100 and 200 mg/kg
  orientation and motion activity: reliably corresponds to the control level
White outbred male rats [1]; [4]
  Diarrhea: 2.0 ± 0.1 points
  Ptosis: 3.0 ± 0.2 points
  Number of pulses in activity meter: 20.3 ± 1.4
White outbred male rats [1]; [5]
  Diarrhea: 1.4 ± 0.2 points
  Ptosis: 2.5 ± 0.2 points
  Number of pulses in activity meter: 22.8 ± 1.2
White outbred male rats [1]; [6]
  Diarrhea: 1.0 ± 0.2 points
  Ptosis: 2.0 ± 0.2 points
  Number of pulses in activity meter: 30.6 ± 2.4
White outbred male rats [1]; [7]
  Diarrhea: 1.1 ± 0.2 points
  Ptosis: 2.0 ± 0.1 points
  Number of pulses in activity meter: 33.9 ± 3.2
White outbred male rats [2]; doses of 50 and 100 mg/kg
  reduction in the time of immobility as compared to the control group: 1.6 times
White outbred male rats [2]; [8]
  Time of immobility: 275.5 ± 84.2 s
White outbred male rats [2]; [9]
  Time of immobility: 185.7 ± 49.5 s
White outbred male rats [2]; single dose 100 mg/kg intragastrically 40 minutes before
  Time of immobility: 158.4 ± 43.2 s
White outbred male rats [2]; single doses of 50 and 100 mg/kg
  antidepressant effect in behavioral despair test: pronounced antidepressant effect
White outbred male rats [3]; [8]
  Number of wheel revolutions for 10 minutes: 89.3 ± 17.2
White outbred male rats [3]; [9]
  Number of wheel revolutions for 10 minutes: 102.7 ± 16.1
White outbred male rats [3]; single dose 100 mg/kg intragastrically 40 minutes before, 100 mg/kg
  Number of wheel revolutions for 10 minutes: 121.8 ± 23.7
White outbred male rats [3]; single dose 100 mg/kg intragastrically 40 minutes before, listed as phenotropyl, 100 mg/kg
  Number of wheel revolutions for 10 minutes: 121.8±23.7
